# Data published in patent US7618656B2, “Method for use of lanthanum carbonate pharmaceutical compositions” (Shire International Licensing B.V., priority 2006, dated 2009).
# Experiment: Attempted conversion of polymorph (II) to polymorph (I) by heating in water
# Type: physicochemical
# Conditions: 18 days at 90-100° C.
# From the text: An attempt was made to convert polymorph (II) to polymorph (I) by heating in water for an extended period of time.
structure (smiles),measurement,value
"O=C([O-])[O-].[La+3].[OH-] [polymorph (II), lanthanum hydroxycarbonate]",conversion of polymorph (II) to polymorph (I) (polymorph stability),No evidence of conversion
